Experimental data from ChEMBL document CHEMBL1154254, “Antiproliferative triterpenoid saponins of Dodonaea viscosa from the Madagascar dry forest” (J Nat Prod, 2009).

Assays:
Format in all cases: functional, cell-based
[1] = tested on: A2780; test: Antiproliferative activity against human A2780 cells after 2 days by alamar blue assay; conditions: A2780, 48 h
[2] = tested on: BT-549; test: Antiproliferative activity against human BT549 cells
[3] = tested on: NCI-H460; test: Antiproliferative activity against human NCI-H460 cells
[4] = tested on: DU-145; test: Antiproliferative activity against human DU145 cells
[5] = tested on: HCC 2998; test: Antiproliferative activity against human HCC2998 cells

Question: How did the IC50 [1] turn out when `C/C=C(/C)C(=O)O[C@H]1[C@H](OC(=O)[C@]2(C)O[C@@H]2C)C(C)(C)C[C@H]2C3=CC[C@@H]4[C@@]5(C)CC[C@H](O[C@@H]6O[C@H](C(=O)O)[C@@H](O)[C@H](O[C@@H]7O[C@@H](CO)[C@H](O)[C@H]7O)[C@H]6O[C@@H]6O[C@H](CO)[C@@H](O)[C@H](O)[C@H]6O)C(C)(C)[C@@H]5CC[C@@]4(C)[C@]3(C)C[C@@H](O)[C@]21CO` [DODONAEASIDE B] was run?
Answer: 700 nM

Question: Which results are given for `C/C=C(/C)C(=O)O[C@H]1[C@H](OC(=O)/C(C)=C\C)[C@]2(CO)[C@H](O)[C@H](O)[C@]3(C)C(=CC[C@@H]4[C@@]5(C)CC[C@H](O[C@@H]6O[C@H](C(=O)O)[C@@H](O)[C@H](O[C@@H]7O[C@@H](CO)[C@H](O)[C@H]7O)[C@H]6O[C@@H]6O[C@H](CO)[C@@H](O)[C@H](O)[C@H]6O)C(C)(C)[C@@H]5CC[C@]43C)[C@@H]2CC1(C)C` [DODONAEASIDE A]?
Answer: IC50 [1]: 790 nM; IC50 [2]: > 5000 nM; IC50 [3]: > 5000 nM; IC50 [4]: > 5000 nM; IC50 [5]: > 5000 nM
